Series [1] has as its system apoE4 enhancement of Aβ production. As to the kind of experiment: Aβ production assay, B103-APP cells incubated with apoE4. Format: cell-based, rat. The protocol:
(§1) Aβ production assay. Stable neuroblastoma B103 cell lines transfected with a wildtype hAPP cDNA construct (B 103-APP) were selected by growing them in Dulbecco's modified Eagle's medium (DMEM) containing 10% fetal calf serum (FBS) and 400 μg/ml G418. A cell line expressing APP at similar levels in mouse brains has been identified by RNase protection assay (RPA) and was used in the studies described below. To determine Aβ production, B103-APP cells were incubated with serum-free minimal essential medium (MEM) containing N2 supplements with or without apoE isoforms for 24 h at 37° C. After incubation, 50 μl of medium was collected and assayed for Aβ levels with an ELISA method. The cells were lysed, and cellular proteins were determined by the Lowry method. AP production was normalized to cellular protein.
(§2) Cell Culture. Rat neuroblastoma B103 cells stably expressing human wildtype APP (hAPP695wt) (Xu et al. ((1999) Proc. Natl. Acad. Sci. USA 96:7547-7552; Esposito, et al. (2004) J. Neurochem. 91:1260-1274) were generated in Dr. Lennart Mucke's laboratory at the Gladstone Institute of Neurological Disease and maintained in Dulbecco's modified Eagle's medium (DMEM) (GIBCO, Grand Island, N.Y.) containing 400 μg/ml G418, 10% fetal bovine serum, and 5% horse serum at 37° C. Twenty-four hours after plating into 48-well plates (1×10^5 cells per well), cells were washed twice with serum-free DMEM and cultured for another 24 h in DMEM containing 1% N-2 supplement (GIBCO) to induce differentiation. The cells were treated with either β-VLDL (25 μg/ml cholesterol), recombinant human apoE isoform-enriched β-VLDL (7.5 μg/ml apoE and 25 μg/ml cholesterol), or recombinant human apoE (7.5 μg/ml apoE) in fresh DMEM containing 1% N-2 supplement for an additional 24 h. In some experiments, RAP (25 nM or 1 μM) was added to the cells 1 h before apoE treatment.
(§3) Aβ Assay. Aβ secreted into the medium was detected with a sandwich enzyme-linked immunosorbent assay (ELISA), using mAb 266 as a capturing antibody and 3D6 as a detecting antibody, as described. Johnson-Wood et al. ((1997) Proc. Natl. Acad. Sci. USA 94:1550-1555). Aβ was quantified from a standard curve (Aβ42; Bachem, Torrance, Calif.) and normalized by total cellular protein.

The next series deals with apoE3. Put plainly: Aβ production assay, B103-APP cells incubated with apoE3. The class given is cell-based, rat. Particulars: FIG. 22. The protocol:
as §1, §2, §3

The target of the next series is T1, YFP-apoE4-CFP (Homo sapiens, UniProt P02649, C130R).
T1 construct: vector signal peptide (pFLAG-CMV3) (N); FLAG (N); expressed in transfected cells
As to the kind of experiment: Cell-based FRET assay, YFP-apoE4-CFP. The following applies: 5-20 μM. The source says: (§4) Xu et al. (2004) J. Biol. Chem. 279:25511-25516. FRET—the non-radioactive transfer of photon energy from an excited fluorophore (donor) to another fluorophore (acceptor)—occurs only when the donor and acceptor are in close proximity (<100 Å). Thus, this approach can be used to measure nanometer scale distances.
(§5) Xu et al. (2004) J. Biol. Chem. 279:25511-25516. The constructs are depicted schematically in FIG. 29.
(§6) Since the emission spectrum of CFP (460-520 nm) overlaps with the excitation spectrum of YFP (480-520 nm), FLEXstation (Molecular Devices) can be used to measure FRET in living cells expressing YFP-apoE3-CFP or YFP-apoE4-CFP in a high throughput manner. […] Thus, the ratio of FRET to CFP emission in cells expressing YFP-apoE4-CFP is much higher than that in those expressing YFP-apoE3-CFP (FIG. 31). […] Since the FLEXstation can read FRET in both cells and the culture media treated without or with various small molecules, this assay allows one to know whether a small molecule affects apoE4 domain interaction only in the medium (“medium FRET”) or also inside the cell (“intracellular FRET”). In addition, after measurement of the intracellular FRET, the cells can be incubated further with MTT to determine the cytotoxicity of the compound. Thus, the cell-based FRET assay can simultaneously provide three sets of data-intracellular FRET, medium FRET, and cytotoxicity.
(§7) Quantifying FRET in Transfected Neuro-2a Cells—Stably transfected Neuro-2a cells expressing YFP-apoE3-CFP or YFP-apoE4-CFP at similar levels were selected by fluorescence activated cell sorter (FACS). YFP and CFP images of transfected cells were acquired with the Meta Detector, and their fluorescence intensities were analyzed with the mounted computer. The FRET signal was calculated as the ratio of YFP to CFP fluorescence intensity under CFP excitation. For each YFP-apoE-CFP construct, the FRET signal was measured in at least 12 cells from different fields.
(§8) Quantifying FRET in the Culture Medium—Neuro-2a cells stably expressing YFP-apoE3-CFP or YFP-apoE4-CFP and wildtype cells were grown in T175 flasks to 90% confluence and incubated with serum-free minimum essential medium containing N2 supplement for 24 h. The conditioned medium (20 ml/flask) was concentrated about 20-fold with Centriplus-YM-10 concentrators (Amicon, Bedford, Mass.), dialyzed against PBS, illuminated at the CFP excitation wavelength (430 nm), and scanned for emission spectrum. The FRET signal was calculated as the ratio of emission at 525 nm (YFP) to that at 475 nm (CFP). Conditioned medium from cells expressing apoE3-CFP or apoE4-CFP was used to determine baseline fluorescence in the absence of FRET.

In a further series the target is T2, YFP-apoE3-CFP (Homo sapiens, UniProt P02649).
T2 construct: vector signal peptide (pFLAG-CMV3) (N); FLAG (N); expressed in transfected cells
Put plainly: Cell-based FRET assay, YFP-apoE3-CFP.
Source text: as §4, §5, §6, §7, §8

Another series relates to YFP-apoE4-CFP cells. As to the kind of experiment: MTT cytotoxicity assay. Format: cell-based, mouse. Particulars: 5-10 μM.
Source text: as §6
On the technique in general: Tetrazolium assays rely on reduction of a dye to a coloured formazan, in cell work by metabolically active cells.

Another series deals with Neuro-2a cells. Put plainly: Aβ-induced lysosomal leakage (cytosolic β-hexosaminidase). The class given is cell-based, mouse.
A further series deals with B103 cells. Put plainly: Toxicity to B103 cells. Format: cell-based, rat. The following applies: at the micromole level.
Another series is described as follows: Water solubility. The class given is physicochemical.

These results are taken from patent US7964598B2 (The J. David Gladstone Institutes, priority 1995, dated 2011).

Structures are written as SMILES. “Also recorded” adds a separate entry of the source.

T1 sequence (P02649 19-317 C130R): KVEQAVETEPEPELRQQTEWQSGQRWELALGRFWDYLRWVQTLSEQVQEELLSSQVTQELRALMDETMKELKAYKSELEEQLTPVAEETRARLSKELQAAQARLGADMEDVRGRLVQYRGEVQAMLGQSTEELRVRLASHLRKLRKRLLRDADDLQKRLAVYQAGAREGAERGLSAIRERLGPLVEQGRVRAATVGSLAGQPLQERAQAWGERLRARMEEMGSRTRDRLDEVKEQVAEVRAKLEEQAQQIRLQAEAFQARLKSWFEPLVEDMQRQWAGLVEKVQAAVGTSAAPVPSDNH
T2 sequence (P02649 19-317): as the sequence (P02649 19-317 C130R) above, with R112C counted along it

In the case of `O=S(=O)([O-])c1ccc2c(c1)c(Nc1ccc(S(=O)(=O)O)cc1)cc1c2nc2ccccc2[n+]1-c1ccccc1` [GIND-25, azocarmine-G], the “apoE4 enhancement of Aβ production” value in series [1] (FIG. 22) is listed as “abolished completely”. The “enhancement of Aβ production by apoE4” value in series [1] (compound 5 μM preincubated with apoE 7.5 μg/ml 30 min, then 24 h with cells, FIG. 27D) is “abolish; also recorded: decreased Aβ production induced by apoE4 to levels similar to those induced by apoE3”. Moreover, in the series with apoE3, the “effect on apoE3 (Aβ production)” value is “no effect”. On YFP-apoE4-CFP (intracellular), the “ratio of FRET to CFP emission in the cells expressing YFP-apoE4-CFP” value is reported as “decreased significantly”. In addition, the “ratio of FRET to CFP emission in media of YFP-apoE4-CFP cells” value on YFP-apoE4-CFP (medium) was “decreased significantly”. Further, the “ratio of FRET to CFP emission in cells expressing YFP-apoE3-CFP” value at YFP-apoE3-CFP (intracellular) is listed as “none of these compounds altered significantly”. Moreover, the “ratio of FRET to CFP emission in media of YFP-apoE3-CFP cells” value on YFP-apoE3-CFP (medium) is given as “none of these compounds altered significantly”. The “cytotoxicity (MTT assay)” value in the series with YFP-apoE4-CFP cells was “did not cause significant cytotoxicity”. In addition, the “lysosomal leakage, cells with medium alone or medium containing apoE3 plus Aβ1-42” value in the series on Neuro-2a cells was “no significant effect”. Besides, the “apoE4 potentiation of Aβ-induced lysosomal leakage” value with Neuro-2a cells (5 μM, apoE4 conditioned medium, Aβ1-42 20 μM) is given as “block; also recorded: abolish”. Moreover, the “toxicity to B103 cells” value in the series with B103 cells is given as “no significant toxicity”. For the same compound, in the series “Water solubility”, the water solubility entry was “water-soluble”.
